Data on two molecules can be found in US4104469A, “7-(Syn-α-alkoxy-iminofuryl)acetamido-3-(2-methyl-2,3-dihydro-s-t riazolo[4,3-b]pyridazin-3-on-6-ylthiomethyl)-3-cephem-4-carboxylic acids” (Bristol-Myers Company, priority 1977, dated 1978).

Type in all cases: cell-based
Assay [1] relates to S. marcescens. The assay is described as follows: MIC against 18 strains of S. marcescens (Table 3). The conditions noted are these: Serratia marcescens, read-out: Geometric Means of MIC's. The text has this: | Geometric Means of MIC's Against 18 Strains |of S. marcescens
In the next assay the test system is H. influenzae. The assay is described as follows: In vitro antibacterial activity, Mueller-Hinton agar serial dilution (Table 1). The conditions noted are these: Haemophilus influenzae, 7 strains, serial dilution method, read-out: Geometric Mean of MIC. The source says: (§1) In vitro Activity Using Mueller-Hinton Agar
(§2) By the Serial Dilution Method

A further assay concerns N. gonorrhoeae. The assay is described as above. The conditions noted are these: Neisseria gonorrhoeae, 5 strains, serial dilution method, read-out: Geometric Mean of MIC.
Excerpt: as §1, §2

The next assay deals with Proteus. The description is as above. The conditions noted are these: read-out: Geometric Mean of MIC.
Excerpt: as §1, §2

Another assay deals with Kl. pneumoniae. Described as above. The conditions noted are these: Klebsiella pneumoniae, 4 strains, serial dilution method, read-out: Geometric Mean of MIC.
Excerpt: as §1, §2

The next assay has as its system S. aureus. Described as above. The conditions noted are these: Staphylococcus aureus, 3 strains, serial dilution method, read-out: Geometric Mean of MIC.
Excerpt: as §1, §2

The next assay has as its system S. viridans. The description is as above. The conditions noted are these: Streptococcus viridans, 5 strains, serial dilution method, read-out: Geometric Mean of MIC.
Excerpt: as §1, §2

Assay [2] concerns E. coli. The assay is described as above. The conditions noted are these: Escherichia coli, 7 strains, serial dilution method, read-out: Geometric Mean of MIC.
Excerpt: as §1, §2

Another assay deals with N. meningitidis. The assay is described as above. The conditions noted are these: Neisseria meningitidis, 5 strains, serial dilution method, read-out: Geometric Mean of MIC.
Excerpt: as §1, §2

The test system of the next assay is D. pneumoniae. Described as above. The conditions noted are these: Streptococcus pneumoniae, 5 strains, serial dilution method, read-out: Geometric Mean of MIC.
Excerpt: as §1, §2

The subject of assay [3] is Shig.(3), Serr.(1) Enterab.(1), Sal.(2) B. -B. (1). The description is as above. The conditions noted are these: pooled Shig.(3), serial dilution method, read-out: Geometric Mean of MIC.
Excerpt: as §1, §2

The test system of another assay is S. pyogenes. The description is as above. The conditions noted are these: Streptococcus pyogenes, read-out: Geometric Mean of MIC.
Excerpt: as §1, §2

Another assay deals with E. coli, Cephalosporin-R. The assay is described as follows: MIC on Mueller-Hinton agar (Table 2). The conditions noted are these: Escherichia coli, 1 strain, read-out: Geometric Means of MIC's. The text has this: (§3) Geometric Means of MIC's Against 3 Strains
(§4) of S. aureus and 27 Strains of Gram-negative Bacteria
(§5) (mcg./ml., Mueller-Hinton Agar)

Another assay has as its system P. aeruginosa. As to the kind of experiment: MIC on Mueller-Hinton agar (Table 2). The conditions noted are these: Pseudomonas aeruginosa, 2 strains, read-out: Geometric Means of MIC's.
Excerpt: as §3, §4, §5

The subject of assay [4] is Indole (+) Proteus, Cephalosporin-R. The assay is described as follows: MIC on Mueller-Hinton agar (Table 2). The conditions noted are these: 2 strains, read-out: Geometric Means of MIC's.
Excerpt: as §3, §4, §5

A further assay relates to E. cloacae. The assay is described as follows: MIC on Mueller-Hinton agar (Table 2). The conditions noted are these: Enterobacter cloacae, 1 strain, read-out: Geometric Means of MIC's.
Excerpt: as §3, §4, §5

For the next assay, the system named is Indole (-) Proteus. The assay is described as follows: MIC on Mueller-Hinton agar (Table 2). The conditions noted are these: 2 strains, read-out: Geometric Means of MIC's.
Excerpt: as §3, §4, §5

Another assay has as its system Indole (+) Proteus. As to the kind of experiment: MIC on Mueller-Hinton agar (Table 2). The conditions noted are these: 3 strains, read-out: Geometric Means of MIC's.
Excerpt: as §3, §4, §5

The subject of another assay is S. aureus, Penicillin-R. The assay is described as follows: MIC on Mueller-Hinton agar (Table 2). The conditions noted are these: Staphylococcus aureus, 2 strains, read-out: Geometric Means of MIC's.
Excerpt: as §3, §4, §5

Assay [5] has as its system S. marcescens. As to the kind of experiment: MIC on Mueller-Hinton agar (Table 2). The conditions noted are these: Serratia marcescens, 1 strain, read-out: Geometric Means of MIC's.
Excerpt: as §3, §4, §5

The subject of assay [6] is E. coli. The assay is described as follows: MIC on Mueller-Hinton agar (Table 2). The conditions noted are these: Escherichia coli, 6 strains, read-out: Geometric Means of MIC's.
Excerpt: as §3, §4, §5

For another assay, the system named is Shigella, Salmonella. As to the kind of experiment: MIC on Mueller-Hinton agar (Table 2). The conditions noted are these: 5 strains, read-out: Geometric Means of MIC's.
Excerpt: as §3, §4, §5

The next assay deals with K. pneumoniae. The assay is described as follows: MIC on Mueller-Hinton agar (Table 2). The conditions noted are these: Klebsiella pneumoniae, 4 strains, read-out: Geometric Means of MIC's.
Excerpt: as §3, §4, §5

For a further assay, the system named is bacteria. As to the kind of experiment: In vitro antibacterial potency. The conditions noted are these: compared with corresponding compound lacking 2-methyl group (BB-S515).

Structures can show the parent of a compound that is named as a salt. Where two headings read alike, the source gives them in different places. Where only a bound is given, the exact number is not on record here.

With `CO/N=C(\C(=O)N[C@@H]1C(=O)N2C(C(=O)O)=C(CSc3ccc4nn(C)c(=O)n4n3)CS[C@H]12)c1ccco1` [BB-S510, 7-[(2Z)-2-methoxyimino(fur-2-yl)acetamido]-3-(2-methyl-2,3-dihydro-s-triazolo[4,3-b]pyridazin-3-on-6-ylthiomethyl)-3-cephem-4-carboxylic acid sodium salt], the MIC in the assay on S. marcescens [1] is 7.9 µg/mL; in the assay on H. influenzae, 0.35 µg/mL; in the assay with N. gonorrhoeae, 0.26 µg/mL; in the assay with Proteus (6 strains, Mueller-Hinton agar, serial dilution method), 1.39 µg/mL; with Kl. pneumoniae, 6.3 µg/mL; in the assay with S. aureus, 0.62 µg/mL. In addition, the MIC in the assay on S. viridans stood at 0.13 µg/mL; in the assay with E. coli [2] it was 2.11 µg/mL; in the assay with N. meningitidis it was 1.03 µg/mL; in the assay with D. pneumoniae, 0.021 µg/mL; in [3] it was 6.26 µg/mL; in the assay with S. pyogenes (5 strains, Mueller-Hinton agar, serial dilution method), 0.0125 µg/mL. For the same molecule, the MIC was 3.1 µg/mL with E. coli, Cephalosporin-R; above 100 µg/mL in the assay with P. aeruginosa; 6.3 µg/mL in assay [4]; 3.1 µg/mL in the assay on E. cloacae; 1.1 µg/mL with Indole (-) Proteus; 0.2 µg/mL in the assay on Indole (+) Proteus. Further, the MIC in the assay on S. aureus, Penicillin-R stood at 0.1 µg/mL; with S. marcescens [5] it was 6.3 µg/mL; in the assay on E. coli [6], 0.1 µg/mL; in the assay with Shigella, Salmonella, 0.5 µg/mL; in the assay with K. pneumoniae, 2.6 µg/mL. Further, the “in vitro antibacterial potency” value in the assay with bacteria is “considerably superior”.
For `CO/N=C(\C(=O)N[C@@H]1C(=O)N2C(C(=O)O)=C(CSc3ccc4n[nH]c(=O)n4n3)CS[C@H]12)c1ccco1` [BB-S515, 7-[(2Z)-2-methoxyimino(fur-2-yl)acetamido]-3-(2,3-dihydro-s-triazolo[4,3-b]pyridazin-3-on-6-ylthiomethyl)-3-cephem-4-carboxylic acid sodium salt, reference compound], the MIC in the assay with H. influenzae amounted to 2.11 µg/mL; in the assay with N. gonorrhoeae, 2.07 µg/mL; in the assay on Proteus, 1.11 µg/mL; in the assay on Kl. pneumoniae, 3.1 µg/mL; in the assay on S. aureus, 2.48 µg/mL; with S. viridans, 0.59 µg/mL. Moreover, the MIC with E. coli [2] was 2.33 µg/mL; in the assay on N. meningitidis it was 5.45 µg/mL; with D. pneumoniae it was 0.1 µg/mL; in assay [3], 5.26 µg/mL; in the assay with S. pyogenes it was 0.032 µg/mL.
